In assay [1] the target is T1, human colonic mucus (Muc2) (Homo sapiens, UniProt Q02817).
T1 construct: Segments of human colon (ascending, descending and sigmoid colon) were obtained from fully informed patients undergoing surgery; from tissue; host or cells: healthy human colon segments (live explants, mucus collected from them, Carnoy- or formol-fixed sections)
Put plainly: Immunofluorescent staining of human mucus and fixed human colon samples. The settings on record: human mucus extract collected on ex vivo tissues. The source says: FIGS. 4A-4B. Cy5-MUB70 is specifically binding to the glycosylated moiety of Muc2 secreted in the colon mucus layer. (FIG. 4A) Immunodetection of Muc2, Muc5ac, Muc5b and Muc6 (dotblot analysis) on human mucus extracts eluted after a pulldown assay performed with biot-MUB70 on avidin conjugated beads (see Methods). Biotin is used as a negative control. Immunodetection of Muc2 (dotblot analysis) on deglycosylated mucus extracts eluted after a pulldown assay performed with biot-MUB70 on avidin conjugated beads. Non-deglycosylated mucus extract is used as a positive control. (FIG. 4B) Co-localization of Muc2 (green) and Cy5-MUB (blue) observed on fixed (Carnoy) human colon samples. Actin is stained in red (Phall.RRX). Observations are performed using a confocal microscope. Bars is 20 μm.
FIGS. 9A-9B. (FIG. 9A) Co-localization of Muc2 (green) and Cy5-MUB (blue) performed by immunofluorescent detection on human mucus extract collected on ex vivo tissues using an epifluorescent microscope. Bar is 50 μm. […]
For immunofluorescence assay mouse α-MUC2 pAbs (Santa Cruz sc-15334) was diluted 1:1000 and FITC-conjugated rabbit anti-mouse was diluted 1:2000. Host cells were detected with DAPI (nuclei, […]) or using Phalloidin-Rhodamine red X (RRX)-conjugated donkey anti-mouse antibodies (Jackson Immunoresearch Antibodies) as an actin marker (stained red); both were used at a final dilution of 1:1000. […]

The target of assay [2] is T2, human colonic mucus and goblet cells (Homo sapiens, UniProt Q02817).
T2 construct: Segments of human colon (ascending, descending and sigmoid colon) were obtained from fully informed patients undergoing surgery; from tissue; host or cells: healthy human colon segments (live explants, mucus collected from them, Carnoy- or formol-fixed sections)
The experiment in a line: Fluorescent staining of healthy human colon, formol fixed, paraffin embedded samples. The settings on record: fixed samples, 1 μg/mL. As to the method:
FIG. 22. Schematic description of the Cy5-MUB40-1, Cy5-MUB40-2, Cy5-MUB40-3, Cy5-MUB40-4 peptides (SEQ ID NOS 62 to 65). Fluorescent staining of human colonic mucus was performed by the addition of 1 μg/mL of the corresponding Cy5-conjugated peptides with Phalloidin-RRX (1:100) on formol fixed, paraffin embedded samples. Image acquisition was performed using a fluorescent confocal microscope (see Methods).
FIG. 23 Comparative staining analysis of human colonic goblet cells using Cy5-MUB70 and Cy5-MUB40-1. Fluorescent staining of human colonic mucus was performed by the addition of 1 μg/mL of the corresponding Cy5-conjugated peptides with Phalloidin-RRX (1:100) on formol fixed, paraffin embedded samples. Image acquisition was performed using a fluorescent confocal microscope (see Methods).
FIGS. 24A-24B. Comparative human colonic mucus staining using MUB70-Cy5 on healthy tissues and mucinous carcinomas (Coic et al, JBC, 2012 (41)). Fluorescent staining of human colonic mucus was performed by the addition of 1 μg/mL of the corresponding Cy5-conjugated peptides with Phalloidin-RRX (1:100) on formol fixed, paraffin embedded samples. Image acquisition was performed using a fluorescent confocal microscope (see Methods).
As colonic mucinous carcinomas are characterized by abnormal overproduction of Muc2 in the colon mucosa (40), the inventors have hypothesized that Cy5-MUB70 could be used as a novel fluorescent marker for the diagnosis of this pathology. […] As shown previously on a healthy colon (FIG. 3B), the luminal mucus secreted fraction is detected by Cy5-MUB70 (FIG. 24A, top panel). […] This observation might be the consequence of a higher level of mucus compaction, resulting in a lower accessibility for MUB70 to bind Muc2. […] Cy5-MUB70 has been validated as a potent innovative diagnostic tool for colonic mucinous carcinoma detection and might be optimized with alternative markers (e.g. biotin) for practical clinical applications.

In assay [3] the test system is human neutrophil (PMN) granules. The experiment in a line: Human neutrophil (PMN) granule staining. The assay is classed as cell-based. The settings on record: for PMN granule staining: PMN purified from human blood, fixed in 4% PFA, 1 μg/mL; for signal brightness of PMN granule staining: fixed PMN, compared among Cy5-MUB40 probes. The procedure: FIG. 14. Staining of individual neutrophiles (white blood cells) in human blood sample. Cy5-MUB70 was incubated on ethanol 100% fixed blood sample. […] (Details are provided on the Figure). […] In particular, granules staining is achieved.
FIG. 15. Staining of individual neutrophiles (white blood cells) purified from fresh human blood sample. Cy5-MUB70 was incubated on PFA 4% fixed neutrophiles (PFA treatment for 15 min, wash 3 times in PBS). Signal was detected as dots distributed in neutrophile cytoplasms. (Staining with Dapi 1:1000 and EB1C5 1:1000 in PBS+10% FCS+0.1% Saponin). […] In particular, granules staining is achieved.
FIG. 29. Identification of Muc2 in neutrophile granules using MUB70-Cy5. Human neutrophil (PMN) granule staining using Cy5-MUB70. PMN were purified from healthy donor blood samples and fixed in the presence of 4% PFA. Fluorescent staining of human colonic mucus was performed by the addition of 1 μg/mL of Cy5-MUB70 (Red) with Dapi (1:100) (Blue) and 1:200 anti-Muc2 antibody (Green). Image acquisition was performed using a fluorescent confocal microscope (see Methods).
FIG. 31. Identification of Muc2 in neutrophile granules. Human neutrophil (PMN) granule staining using Cy5-MUB40-1, Cy5-MUB40-2, Cy5-MUB40-3, Cy5-MUB40-4 peptides. Schematic description of the Cy5-conjugated peptides. PMN were purified from healthy donor blood samples and fixed in the presence of 4% PFA. Fluorescent staining of human colonic mucus was performed by the addition of 1 μg/mL of the Cy5-conjugated peptides (Green) with Dapi (1:100) (Blue) and Phalloidin-RRX (1:1000) (Red). Image acquisition was performed using a fluorescent confocal microscope (see Methods).
The invention has also proven to be useful for the monitoring of neutrophile degranulation events, in particular by using MUB70 and/or MUB40 polypeptides or polypeptides sharing identity with MUB70 and/or MUB40 polypeptides, or fragments thereof, for labelling neutrophile granule(s).

No end group written: not given here.

On to `CCN1/C(=C/C=C/C=C/C2=[N+](CCCCCC(=O)O)c3ccc(S(=O)(=O)O)cc3C2(C)C)C(C)(C)c2cc(S(=O)(=O)[O-])ccc21` [Cy5, reference compound], for which the human mucus binding result in assay [1] is reported as “does not have the property to bind human mucus”. On to “Cy5-MUB40-1: Cy5-conjugated MUB40-1 peptide with N-terminal cysteine (SEQ ID NO: 62) (C(Cy5)TAEGIKKFEGDGYELFKDNFPAGEKFDNDDTNDQFYTVIF; not fully specified)”, for which the goblet cells binding result in assay [2] (human colonic goblet cells) is given as “possessing globlet-cells binding properties”. The human mucus binding result in assay [2] (human colonic mucus) is listed as “functional human mucus-binding peptide”. Also, in assay [3], the PMN granule staining result is reported as “efficiently stained” and the “signal brightness of PMN granule staining” value was “brighter signal”. Take “Cy5-MUB40-2: Cy5-conjugated MUB40-2 peptide with N-terminal cysteine (SEQ ID NO: 63) (C(Cy5)GYTDETIPYSTAEGIKKFEGDGYELFKDNFPAGEKFDNDD; not fully specified)”: the PMN granule staining entry in assay [3] is reported as “efficiently stained”. In the case of “Cy5-MUB40-3: Cy5-conjugated MUB40-3 peptide with N-terminal cysteine (SEQ ID NO: 64) (C(Cy5)DQMLRQDDLDGYTDETIPYSTAEGIKKFEGDGYELFKDNF; not fully specified)”, in assay [3], the PMN granule staining result is “efficiently stained”. As for “Cy5-MUB40-4: Cy5-conjugated MUB40-4 peptide with N-terminal cysteine (SEQ ID NO: 65) (C(Cy5)VHVQYIDGETDQMLRQDDLDGYTDETIPYSTAEGIKKFEG; not fully specified)”, in assay [3], the PMN granule staining entry is listed as “efficiently stained” and the “signal brightness of PMN granule staining” value is listed as “brighter signal”.
